Measured values as given in US8148392B2, “2-indolyl imidazo [4,5-d] phenanthroline derivatives and their use in the treatment of cancer” (Lorus Therapeutics Inc., priority 2005, dated 2012).
“Also recorded” adds a separate entry of the source.

Columns and labels:
HT-29 cells = assay: Cell cycle analysis by flow cytometry, HT-29; assay type: cell-based, human; conditions: HT-29, 24 hours
Method: To test the ability of compounds of Formula I to block cell cycle progression, compound 3 was incubated with human colon carcinoma HT-29 or human leukemia CCRF-CEM cells to determine alterations in populations of cells at different stages of the cell cycle using flow cytometric analysis. HT-29 cells were maintained as described in Example 13. CCRF-CEM cells used in this example and subsequent examples were maintained as suspension cells in a growth medium; RPMI-1640 medium (Sigma, St. Louis, Mo.), supplemented with 2 mM L-glutamine (Gibco, Grand Island, N.Y.), 10% fetal bovine serum (FBS) (Multicell, WISENT Inc. St-Bruno, QC), antibiotic-antimycotic (Multicell), at 37° C. in a 5% CO2-humidified incubator.
The assay was carried out as follows. For HT-29 cells, 1×10^6 cells in 10 mL volume of the growth medium were seeded in 100 mm dishes. For CCRF-CEM cells, 3×10^6 cells in 10 mL volume of the growth medium were seeded in 25 cm^2 flask. […] The fluorescence of stained cells was analyzed using FACScan flow cytometer and the Cell Quest program (BD Biosciences, San Jose, Calif.). Data were evaluated using Modfit software (Verity software House, Topsham, Me.). Values were determined by gate analysis of flow cytometric plots. […]
Cell cycle analysis was assessed by flow cytometry in HT-29 cells treated with compound 3 as shown in FIG. 27A and compound 7 as shown in FIG. 27B.

[1] = tested on: human lung NCI-H460 cells; assay: Large-cell lung carcinoma NCI-H460 xenograft model, tumour growth; assay type: in vivo, CD-1 female nude mice; conditions: for tumour size and weight: Lutrol (i.p.), lipid-based (i.v.) or water-based (i.p.) formulations
Method: The ability of compounds of Formula I to inhibit large-cell lung tumour growth in vivo was tested by determining the efficacy of compound 3 in a xenograft model as described below. Compound 3 was tested as a lipid-based formulation having the following composition: distearoylphosphatidylethanolamine-polyethylene glycol 2000 (DSPE-PEG/5% mole) and egg phosphatidylcoline (ePC/95% mole). The formulation was prepared as follows: Stock solutions of compound 3 and lipid (ePC and DSPE-PEG) were prepared in DMF. Specific volumes of the stock solutions of compound 3 and lipid were then mixed in order to achieve a final lipid concentration of 25 mg/mL (ePC:DSPE-PEG=95:5 (mol %) and a compound 3 to total lipid ratio of 1:10 (w/w). The mixture was stirred for four hours, thoroughly dried under nitrogen and left overnight under vacuum. HEPES buffer saline (HBS 0.01 M, pH=7.4) warmed to 60° C. was then added in order to rehydrate the dried film. The solutions were vortexed, stirred for 48 hours at room temperature and sonicated for two and half hours. The formulation was then centrifuged at 1000 rpm for 5 minutes to remove any free compound 3.
CD-1 female nude mice (6-7 weeks, 7 mice per treatment group) were injected […] with human lung NCI-H460 cells (3×10^6 cells in 0.1 ml PBS) subcutaneously. Treatment of the mice with vehicle or compound 3 was initiated 5 days post-inoculation (size of tumours=20-40 mm^3) for 7-day cycles of five days followed by a 2 day break for the duration of the experiment (35 days). Mice were treated with 80 mg/kg/d for the first week followed by 40 mg/kg/d until the end of the experiment. The size of the tumours was measured over the course of the experiment using calipers, and the weight of the tumours was measured after the animals were sacrificed.
The ability of compounds 3, 5, and 7 to inhibit large-cell lung carcinoma cell growth in vivo was tested in the mouse xenograft model as described in Example 27. The compounds were tested as Lutrol formulations (administered i.p.), lipid-based formulations micelles (administered i.v.), or water-based formulations (administered i.p.). The vehicle controls included Lutrol control (administered i.p.), lipid micelle control (administered i.v.), and water control (administered i.p.). Lutrol formulations contained 15% Lutrol and 10% DMSO. The composition of the lipid-based formulations and preparation of same was as described in Example 27 above.

[2] = PAR metal binding assay, copper; assay type: physicochemical; conditions: pH 7.5, 200 μM PAR
Method: Results are shown in FIGS. 28A (ZnCl2), 28B (CuCl2) and 28C (FeCl2). In vitro 4-(2-pyridylazo) resorcinol (PAR) zinc binding assay was performed as follows. In triplicate wells of 96-well plate (Sarstedt, Newton, N.C.), 10 μL volume of indicated final concentrations of ZnCl2 in 0.2M Tris-HCl, pH 7.5 was incubated with 10 μL of 80% acetonitrile-20% DMSO vehicle control or indicated final concentrations of the compounds of Formula I, dissolved in 80% acetonitrile-20% DMSO, for 15 min at room temperature. Then, 80 μL of PAR at final concentration of 200 μM in 0.2M Tris-HCl, pH 7.5 was added and the color development of PAR-Zn^2+ complex was measured by a multi-well spectrophotometer (Bio-Tek Instruments Inc.) at 500 nm.
Metal chelation property of compound 64 and the relative affinity on different metal ions were evaluated and compared with the effect of compound 3 in vitro using 4-(2-pyridylazo) resorcinol (PAR) colorimetric zinc assay utilizing methodology as described above in the preceding Examples. Indicated final concentrations of ZnCl2 (FIG. 56A), CuCl2 (FIG. 56B) or FeCl2 (FIG. 56C) were incubated with 80% acetonitrile-20% DMSO vehicle control or 200 μM of the compounds of Formula I. The color development of PAR-metal ion complex was measured by a multi-well spectrophotometer at 500 nm.

[3] = tested on: MDA-MB-231 breast cancer cells; assay: XTT cell proliferation assay, MDA-MB-231; assay type: cell-based, human; conditions: Homo sapiens, read-out: IC50 (cell growth inhibition)
Method: Cell growth inhibition IC50 (μM) by compounds of Formula I was tested on various cancer cell types by XTT cell proliferation assay. The growth inhibitory effects of the compounds of Formula I as shown below for the melanoma cell line SK-MEL-2 were reproducible by Lorus Therapeutics Inc.

SMILES	cell cycle progression (HT-29 cells)	tumour size and weight [1]	tumour growth (size and weight) ([1]; lipid-based formulation, 80 mg/kg/d first week then 40 mg/kg/d, 35 days)	Cu+2 binding to PAR (PAR-Cu2+ absorbance at 500 nm) [2]	IC50 [3] [µM]
Cc1[nH]c2ccccc2c1-c1nc2c3cccnc3c3ncccc3c2[nH]1 [Compound 3]	induced a block in cell cycle progression at the G1 phase; also recorded: Cell cycle arrest at G1/S phase was observed	able to decrease the size (FIG. 16A) and weight (FIG. 16B) of tumours	able to inhibit large-cell lung tumour growth	attenuated; also recorded: eliminated	5
Cc1[nH]c2ccc(F)cc2c1-c1nc2c3cccnc3c3ncccc3c2[nH]1 [Compound 7]	Cell cycle arrest at G1/S phase was observed	able to decrease the size (FIG. 16A) and weight (FIG. 16B) of tumours			5
CCc1cccc2c(-c3nc4c5cccnc5c5ncccc5c4[nH]3)c(C(C)(C)C)[nH]c12 [Compound 64]				eliminated	
